From ChEMBL document CHEMBL3867480 (Bioorg Med Chem, 2016) come the findings set out here.

pIC50: −log10 of the molar value. In brackets after ≈: the same amount, converted by molar mass.

One series deals with Collagenase 3 (Homo sapiens, UniProt P45452).
The target of another series is T1, Interstitial collagenase (Homo sapiens, UniProt P03956).
T1 sequence (P03956 whole entry): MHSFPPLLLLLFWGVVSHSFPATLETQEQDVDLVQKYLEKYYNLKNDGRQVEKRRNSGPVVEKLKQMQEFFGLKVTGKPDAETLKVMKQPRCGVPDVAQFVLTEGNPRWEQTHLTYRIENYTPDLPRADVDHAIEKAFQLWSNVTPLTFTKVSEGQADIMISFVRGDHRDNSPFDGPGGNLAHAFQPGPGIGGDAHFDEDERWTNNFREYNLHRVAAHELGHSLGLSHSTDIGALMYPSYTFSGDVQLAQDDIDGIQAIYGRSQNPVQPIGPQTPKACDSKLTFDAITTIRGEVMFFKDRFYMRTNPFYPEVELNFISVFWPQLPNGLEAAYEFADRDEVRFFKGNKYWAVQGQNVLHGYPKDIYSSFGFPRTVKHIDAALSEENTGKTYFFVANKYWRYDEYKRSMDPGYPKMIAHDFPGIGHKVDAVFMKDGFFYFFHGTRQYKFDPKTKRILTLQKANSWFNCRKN
As to the kind of experiment: Inhibition of recombinant human […]-activated MMP1 using Cy3-PLGLK(Cy5Q)AR-NH2 as substrate measured after 40 mins by spectrofluorimetric method.

The target in series [1] is 72 kDa type IV collagenase (Homo sapiens, UniProt P08253). The series is described as follows: Inhibition of recombinant human […]-activated MMP2 using Cy3-PLGLK(Cy5Q)AR-NH2 as substrate measured after 40 mins by spectrofluorimetric method.
The target of another series is Stromelysin-1 (Homo sapiens, UniProt P08254). As to the kind of experiment: Inhibition of recombinant human […]-activated MMP3 using Cy3-PLGLK(Cy5Q)AR-NH2 as substrate measured after 40 mins by spectrofluorimetric method.
The target of a further series is T2, Matrilysin (Homo sapiens, UniProt P09237).
T2 sequence (P09237 whole entry): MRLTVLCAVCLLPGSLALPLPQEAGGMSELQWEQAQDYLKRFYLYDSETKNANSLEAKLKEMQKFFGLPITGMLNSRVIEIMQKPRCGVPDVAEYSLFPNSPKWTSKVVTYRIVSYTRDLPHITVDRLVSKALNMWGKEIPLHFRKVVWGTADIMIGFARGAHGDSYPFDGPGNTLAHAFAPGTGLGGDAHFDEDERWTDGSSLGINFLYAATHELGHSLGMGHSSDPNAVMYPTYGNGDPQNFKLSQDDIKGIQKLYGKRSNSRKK
As to the kind of experiment: Inhibition of recombinant human […]-activated MMP7 using Cy3-PLGLK(Cy5Q)AR-NH2 as substrate measured after 40 mins by spectrofluorimetric method.

A further series deals with Neutrophil collagenase (Homo sapiens, UniProt P22894). As to the kind of experiment: Inhibition of recombinant human […]-activated MMP8 using Cy3-PLGLK(Cy5Q)AR-NH2 as substrate measured after 40 mins by spectrofluorimetric method.
Series [2] addresses Matrix metalloproteinase-9 (Homo sapiens, UniProt P14780). As to the kind of experiment: Inhibition of recombinant human […]-activated MMP9 using Cy3-PLGLK(Cy5Q)AR-NH2 as substrate measured after 40 mins by spectrofluorimetric method.
In a further series the target is Stromelysin-2 (Homo sapiens, UniProt P09238). As to the kind of experiment: Inhibition of recombinant human […]-activated MMP10 using Cy3-PLGLK(Cy5Q)AR-NH2 as substrate measured after 40 mins by spectrofluorimetric method.
The target in series [3] is Macrophage metalloelastase (Homo sapiens, UniProt P39900). As to the kind of experiment: Inhibition of recombinant human […]-activated MMP12 using Cy3-PLGLK(Cy5Q)AR-NH2 as substrate measured after 40 mins by spectrofluorimetric method.
The target of series [4] is Matrix metalloproteinase-14 (Homo sapiens, UniProt P50281). As to the kind of experiment: Inhibition of recombinant human GST-tagged MMP14 using Cy3-PLGLK(Cy5Q)AR-NH2 as substrate measured after 40 mins by spectrofluorimetric method.
In series [5] the target is Disintegrin and metalloproteinase domain-containing protein 17 (Homo sapiens, UniProt P78536). As to the kind of experiment: Inhibition of recombinant human TACE using Cy3-PLAQAV(Cy5Q-L-2,3-diaminopropionic acid)-RSSSR-NH2 as substrate measured after 40 mins by spectrofluorimetric method.
Series [6] is described as follows: Solubility of the compound at pH 6.8. The class given is physicochemical. The conditions noted are these: buffer.
A short description of series [7]: Permeability of the compound at pH 7.4 by PAMPA assay. The note with it: read-out: permeability. In kind it is ADME.
Series [8] is described as follows: Clearance in human liver microsomes. The note with it: read-out: CLH. In kind it is ADME. (In general: Microsomes from liver hold many membrane-bound enzymes, among them those of drug oxidation.)
The nature of series [9]: Clearance in rat liver microsomes. The class given is ADME. The conditions noted are these: read-out: CLH.
The nature of series [10]: Clearance in rat at 0.1 mg/kg, iv or 1 mg/kg, po. The conditions noted are these: in vivo. The class given is ADME, organism-based.
The nature of series [11]: Oral bioavailability in rat at 1 mg/kg. In kind it is ADME, organism-based. The note with it: in vivo.
The next series concerns the target CYP3A4 (Homo sapiens, UniProt P08684). As to the kind of experiment: Inhibition of CYP3A4 (unknown origin) at 10 uM. The class given is ADME.
Series [12] in a line: Volume of distribution in rat at 0.1 mg/kg, iv or 1 mg/kg, po. The note with it: in vivo. In kind it is ADME, organism-based.

Sequence of Stromelysin-1 (P08254 whole entry): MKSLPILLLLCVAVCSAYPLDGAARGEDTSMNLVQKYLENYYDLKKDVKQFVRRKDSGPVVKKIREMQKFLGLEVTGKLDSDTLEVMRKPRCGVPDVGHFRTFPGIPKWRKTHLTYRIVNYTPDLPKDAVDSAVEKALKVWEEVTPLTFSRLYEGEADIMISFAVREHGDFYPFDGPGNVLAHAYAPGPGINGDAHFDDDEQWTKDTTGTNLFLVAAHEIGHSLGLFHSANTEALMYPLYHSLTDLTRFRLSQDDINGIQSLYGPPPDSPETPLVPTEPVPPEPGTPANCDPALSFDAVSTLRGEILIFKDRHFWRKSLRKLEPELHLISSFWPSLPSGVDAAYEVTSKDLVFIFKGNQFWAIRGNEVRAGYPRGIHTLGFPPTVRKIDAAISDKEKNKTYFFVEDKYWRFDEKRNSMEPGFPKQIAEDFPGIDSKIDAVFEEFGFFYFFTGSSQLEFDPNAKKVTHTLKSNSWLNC
Sequence of Stromelysin-2 (P09238 whole entry): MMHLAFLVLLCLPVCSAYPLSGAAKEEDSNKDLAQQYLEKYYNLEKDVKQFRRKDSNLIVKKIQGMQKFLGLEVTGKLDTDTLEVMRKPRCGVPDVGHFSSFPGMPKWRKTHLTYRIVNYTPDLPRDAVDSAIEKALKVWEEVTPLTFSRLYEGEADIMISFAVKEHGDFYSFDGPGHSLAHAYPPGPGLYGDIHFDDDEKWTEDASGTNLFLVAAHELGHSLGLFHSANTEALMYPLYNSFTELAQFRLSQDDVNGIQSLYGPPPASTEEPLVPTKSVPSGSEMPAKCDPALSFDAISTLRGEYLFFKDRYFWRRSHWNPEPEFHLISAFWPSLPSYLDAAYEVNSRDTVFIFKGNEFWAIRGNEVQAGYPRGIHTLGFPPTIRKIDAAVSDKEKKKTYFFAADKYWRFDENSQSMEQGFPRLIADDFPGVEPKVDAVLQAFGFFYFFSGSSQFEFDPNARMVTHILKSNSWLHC
Sequence of 72 kDa type IV collagenase (P08253 whole entry): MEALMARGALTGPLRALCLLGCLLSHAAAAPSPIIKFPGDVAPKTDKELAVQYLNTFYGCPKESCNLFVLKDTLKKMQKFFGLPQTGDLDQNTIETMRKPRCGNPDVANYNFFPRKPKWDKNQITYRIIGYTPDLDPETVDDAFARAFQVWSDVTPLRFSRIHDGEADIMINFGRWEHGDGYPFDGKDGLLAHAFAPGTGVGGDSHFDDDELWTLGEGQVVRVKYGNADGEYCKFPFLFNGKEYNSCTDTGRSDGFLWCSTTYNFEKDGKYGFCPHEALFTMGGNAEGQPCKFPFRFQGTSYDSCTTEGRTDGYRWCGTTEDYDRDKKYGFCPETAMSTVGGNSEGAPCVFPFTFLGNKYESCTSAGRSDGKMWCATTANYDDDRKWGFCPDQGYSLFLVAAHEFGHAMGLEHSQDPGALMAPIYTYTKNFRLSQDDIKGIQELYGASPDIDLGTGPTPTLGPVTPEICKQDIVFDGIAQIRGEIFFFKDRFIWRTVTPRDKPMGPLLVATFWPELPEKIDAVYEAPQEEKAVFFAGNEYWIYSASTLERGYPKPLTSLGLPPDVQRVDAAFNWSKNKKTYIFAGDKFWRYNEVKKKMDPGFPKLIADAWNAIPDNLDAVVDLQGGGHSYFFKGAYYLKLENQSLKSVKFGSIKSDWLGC
Sequence of Disintegrin and metalloproteinase domain-containing protein 17 (P78536 whole entry, the tested form may be a part): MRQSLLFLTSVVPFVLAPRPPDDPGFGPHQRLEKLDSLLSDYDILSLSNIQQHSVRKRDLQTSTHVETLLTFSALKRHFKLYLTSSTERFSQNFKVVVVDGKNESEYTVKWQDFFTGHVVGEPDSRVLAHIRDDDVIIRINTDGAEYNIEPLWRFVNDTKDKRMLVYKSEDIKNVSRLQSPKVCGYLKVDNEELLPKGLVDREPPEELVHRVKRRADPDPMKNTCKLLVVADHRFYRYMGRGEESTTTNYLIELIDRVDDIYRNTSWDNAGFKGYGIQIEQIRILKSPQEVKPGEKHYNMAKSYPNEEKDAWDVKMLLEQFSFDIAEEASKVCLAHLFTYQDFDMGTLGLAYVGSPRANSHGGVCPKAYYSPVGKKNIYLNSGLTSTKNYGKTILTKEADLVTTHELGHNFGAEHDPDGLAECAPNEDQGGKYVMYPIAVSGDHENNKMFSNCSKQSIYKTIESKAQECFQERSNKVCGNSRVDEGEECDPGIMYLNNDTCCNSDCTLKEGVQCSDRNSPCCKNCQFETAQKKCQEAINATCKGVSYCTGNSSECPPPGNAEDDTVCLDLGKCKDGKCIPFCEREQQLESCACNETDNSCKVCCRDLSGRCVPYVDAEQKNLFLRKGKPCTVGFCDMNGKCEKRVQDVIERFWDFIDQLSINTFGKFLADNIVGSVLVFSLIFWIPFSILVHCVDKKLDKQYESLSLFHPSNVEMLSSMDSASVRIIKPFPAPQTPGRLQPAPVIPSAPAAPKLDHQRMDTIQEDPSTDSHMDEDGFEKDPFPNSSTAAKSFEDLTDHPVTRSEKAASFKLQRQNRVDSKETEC
Sequence of Macrophage metalloelastase (P39900 whole entry): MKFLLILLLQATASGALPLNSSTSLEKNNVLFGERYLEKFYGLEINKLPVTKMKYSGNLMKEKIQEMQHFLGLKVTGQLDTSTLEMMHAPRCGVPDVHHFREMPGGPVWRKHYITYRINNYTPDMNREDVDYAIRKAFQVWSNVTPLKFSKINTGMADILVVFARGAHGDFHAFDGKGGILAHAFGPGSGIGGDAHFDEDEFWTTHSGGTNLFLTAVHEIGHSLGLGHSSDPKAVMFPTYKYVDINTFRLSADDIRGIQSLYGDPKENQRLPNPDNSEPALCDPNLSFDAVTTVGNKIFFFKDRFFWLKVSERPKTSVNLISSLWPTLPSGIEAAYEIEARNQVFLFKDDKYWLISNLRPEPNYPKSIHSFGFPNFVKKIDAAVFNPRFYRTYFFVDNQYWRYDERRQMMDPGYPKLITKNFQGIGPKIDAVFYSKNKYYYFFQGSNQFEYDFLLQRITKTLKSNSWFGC
Sequence of Matrix metalloproteinase-9 (P14780 whole entry): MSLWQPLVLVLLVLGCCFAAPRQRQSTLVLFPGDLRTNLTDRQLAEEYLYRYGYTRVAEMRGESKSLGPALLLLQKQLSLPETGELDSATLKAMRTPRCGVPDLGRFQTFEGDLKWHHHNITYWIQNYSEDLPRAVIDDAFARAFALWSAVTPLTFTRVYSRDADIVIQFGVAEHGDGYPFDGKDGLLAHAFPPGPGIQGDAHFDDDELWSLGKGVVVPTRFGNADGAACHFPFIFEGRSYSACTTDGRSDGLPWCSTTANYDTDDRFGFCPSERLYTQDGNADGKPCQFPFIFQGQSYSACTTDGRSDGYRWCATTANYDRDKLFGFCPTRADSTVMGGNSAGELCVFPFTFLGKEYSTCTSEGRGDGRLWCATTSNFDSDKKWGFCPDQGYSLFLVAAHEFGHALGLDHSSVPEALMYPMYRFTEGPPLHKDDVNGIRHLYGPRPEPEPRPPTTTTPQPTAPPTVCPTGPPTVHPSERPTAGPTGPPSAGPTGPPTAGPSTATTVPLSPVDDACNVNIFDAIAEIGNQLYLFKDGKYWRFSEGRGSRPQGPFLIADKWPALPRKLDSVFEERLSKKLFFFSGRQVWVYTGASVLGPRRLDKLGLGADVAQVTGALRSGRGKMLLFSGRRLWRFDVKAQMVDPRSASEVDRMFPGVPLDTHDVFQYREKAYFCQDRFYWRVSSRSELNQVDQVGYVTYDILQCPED
Sequence of Neutrophil collagenase (P22894 whole entry): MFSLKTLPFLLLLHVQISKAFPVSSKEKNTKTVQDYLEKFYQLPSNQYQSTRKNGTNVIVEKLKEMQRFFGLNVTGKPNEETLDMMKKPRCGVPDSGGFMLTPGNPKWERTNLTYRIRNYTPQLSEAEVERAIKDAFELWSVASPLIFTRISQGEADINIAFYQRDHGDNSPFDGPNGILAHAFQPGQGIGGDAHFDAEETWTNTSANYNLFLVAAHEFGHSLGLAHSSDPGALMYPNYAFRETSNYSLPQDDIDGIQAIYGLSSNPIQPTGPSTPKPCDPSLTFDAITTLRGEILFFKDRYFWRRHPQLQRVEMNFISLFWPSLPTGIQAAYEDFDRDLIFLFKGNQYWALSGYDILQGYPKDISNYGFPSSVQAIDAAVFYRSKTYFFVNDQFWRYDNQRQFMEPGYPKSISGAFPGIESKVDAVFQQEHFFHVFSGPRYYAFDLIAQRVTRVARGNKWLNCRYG
Sequence of CYP3A4 (P08684 whole entry): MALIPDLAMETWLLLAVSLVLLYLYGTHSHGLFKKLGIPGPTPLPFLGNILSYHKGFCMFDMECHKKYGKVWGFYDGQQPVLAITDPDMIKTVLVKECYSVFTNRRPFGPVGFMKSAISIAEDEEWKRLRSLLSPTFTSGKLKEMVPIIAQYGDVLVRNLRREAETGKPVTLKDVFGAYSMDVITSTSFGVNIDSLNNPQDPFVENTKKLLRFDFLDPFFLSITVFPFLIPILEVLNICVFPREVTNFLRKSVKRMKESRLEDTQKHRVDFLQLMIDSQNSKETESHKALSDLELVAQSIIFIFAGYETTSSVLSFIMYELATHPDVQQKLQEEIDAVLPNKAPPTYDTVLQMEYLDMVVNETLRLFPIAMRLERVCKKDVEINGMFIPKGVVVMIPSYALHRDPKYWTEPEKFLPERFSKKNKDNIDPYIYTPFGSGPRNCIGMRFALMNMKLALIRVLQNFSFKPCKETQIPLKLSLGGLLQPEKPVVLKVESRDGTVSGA
Description for Collagenase 3: Inhibition of recombinant human AMPA-activated MMP13 using Cy3-PLGLK(Cy5Q)AR-NH2 as substrate measured after 40 mins by spectrofluorimetric method

In the case of `COc1cccc(CNC(=O)c2nc3ccccc3c(=O)[nH]2)c1`, at Collagenase 3, the pIC50 was 7.92 to 8.25.
Turning to `CC(C)C(CS(=O)(=O)c1ccc(-c2cccc(CNC(=O)c3nc4ccccc4c(=O)[nH]3)c2)cc1)N(O)C=O` (stereo unspecified), the pIC50 on Interstitial collagenase was 7.74; in series [1], 8.52; on Stromelysin-1, 8.60; on Matrilysin, 7.52; at Neutrophil collagenase it was 8.89; in [2], 8.28. Besides, the pIC50 on Stromelysin-2 is 9.46; in series [3], 8.07; in [4], 8.27; in series [5] it was below 5.00; against Collagenase 3 it was 10.29.
`O=C(NCc1cccc(N2CCN(C(=O)Cc3nnn[nH]3)CC2)c1)c1nc2ccccc2c(=O)[nH]1`: the pIC50 is 6.80 in series [1], 7.49 on Neutrophil collagenase, 6.19 on Stromelysin-2 and 8.82 at Collagenase 3.
For `O=C(NCc1cccc(OCCCOc2nc[nH]n2)c1)c1nc2ccccc2c(=O)[nH]1`, the pIC50 is 7.49 in [1], 7.66 on Neutrophil collagenase, 6.66 at Stromelysin-2 and 9.23 against Collagenase 3.
On the same counts, the results for `O=C(NCc1cccc(-c2ccc(CS(=O)(=O)Cc3n[nH]c(=O)[nH]3)cc2)c1)c1nc2scc(-c3cccc(Cl)c3)c2c(=O)[nH]1` are 7.07, 6.00, 7.47 and 9.42.
In the case of `CC(=O)N(O)C(CS(=O)(=O)c1ccc(-c2cccc(CNC(=O)c3nc4ccccc4c(=O)[nH]3)c2)cc1)C(C)C` (stereo unspecified), the pIC50 in series [1] was 7.19; at Neutrophil collagenase, 6.96; on Stromelysin-2, 7.19; against Collagenase 3 it was 9.52. The same compound showed a solubility in [6] of 0.93 µg/mL (≈ 1.65 µM). Moreover, the Papp in [7] turned out to be 45.2 ×10⁻⁶ cm/s. Further, the microsomal CLint in series [8] and in series [9] was 250 µL/min/mg in each case. Moreover, in [10], the clearance was below 0.0167 mL/min/kg. The bioavailability in [11] was below 1%. For the same compound, the inhibition at 10 µM against CYP3A4 came out at 99%.
On to `O=C1NC(=O)C(CC(=O)N2CCN(c3cccc(CNC(=O)c4nc5ccccc5c(=O)[nH]4)c3)CC2)N1` (stereo unspecified), for which the pIC50 was above 8.00 in series [1], above 8.00 at Neutrophil collagenase, above 8.00 at Stromelysin-2 and 9.72 at Collagenase 3.
For the compound `CC(C)C(CS(=O)(=O)c1ccc(-c2cccc(CNC(=O)c3nc4ccccc4c(=O)[nH]3)c2)cc1)N(O)C(N)=O` (stereo unspecified), the pIC50 was above 8.00 in series [1], 7.72 at Neutrophil collagenase, above 8.00 on Stromelysin-2 and 9.59 against Collagenase 3.
Regarding `CCOCCC1(Oc2ccc(-c3cccc(CNC(=O)c4nc5ccccc5c(=O)[nH]4)c3)cc2)C(=O)NC(=O)NC1=O`, the pIC50 was below 5.00 on Interstitial collagenase; 6.96 in series [1]; 5.48 at Stromelysin-1; below 5.00 on Matrilysin; 7.25 at Neutrophil collagenase; 5.80 in [2]. In addition, the pIC50 on Stromelysin-2 is 6.03; in series [3], 6.27; in [4], 5.43; in series [5], below 5.00; on Collagenase 3 it was 9.64. Further, the concentration in solution in [6] (solubility) came to 9.1 µg/mL (≈ 16 µM). Besides, the Papp in [7] came out at 9.5 ×10⁻⁶ cm/s. For the same compound, in series [8], the microsomal CLint amounted to 12 µL/min/mg. This compound also registered a Vd in series [12] of 0.054 L/kg. In addition, in [10], the clearance was 0.35 mL/min/kg. The compound further gave a bioavailability in series [11] of 32%. Besides, at CYP3A4, the inhibition at 10 µM was determined as 22%.
As for `O=C(NCc1cccc(N2CCN(C(=O)Cc3cc(=O)[nH][nH]3)CC2)c1)c1nc2ccccc2c(=O)[nH]1`, the pIC50 in [1] was above 8.00; at Neutrophil collagenase, above 8.00; at Stromelysin-2 it was above 8.00; against Collagenase 3, 9.44.
Regarding `CC(C)[C@H](NS(=O)(=O)c1ccc(-c2cccc(CNC(=O)c3nc4ccccc4c(=O)[nH]3)c2)cc1)C(=O)NO`, the pIC50 is 7.96 at Interstitial collagenase; 8.72 in [1]; 8.82 on Stromelysin-1; 8.14 on Matrilysin; 9.09 on Neutrophil collagenase; 8.33 in series [2]. The negative-log IC50 (pIC50) at Stromelysin-2 was 9.52; in series [3], 8.09; in series [4], 8.42; in series [5] it was below 5.00; against Collagenase 3 it was 11.49.
Take `O=C(NCc1cccc(N2CCN(C(=O)Cc3c[nH]cn3)CC2)c1)c1nc2ccccc2c(=O)[nH]1`: the pIC50 in [1] was 6.92; at Neutrophil collagenase, 7.35; on Stromelysin-2, 6.34; against Collagenase 3, 8.77.
For `O=C(NCc1cccc(N2CCN(C(=O)Cc3n[nH]c(=O)[nH]3)CC2)c1)c1nc2ccccc2c(=O)[nH]1`, the pIC50 on Interstitial collagenase was below 5.00; in series [1], 8.00; at Stromelysin-1, 7.64; on Matrilysin, below 5.00; on Neutrophil collagenase, 8.41; in series [2], 5.54. Besides, the pIC50 was 8.21 on Stromelysin-2; 6.59 in series [3]; 5.05 in [4]; below 5.00 in series [5]; 9.96 against Collagenase 3.
With `O=C(NCc1cccc(OCCCS(=O)(=O)N2CCCCC2C(=O)NO)c1)c1nc2ccccc2c(=O)[nH]1` (stereo unspecified), the pIC50 on Interstitial collagenase was below 5.00; in series [1] it was 9.24; at Stromelysin-1, 8.59; on Matrilysin, 5.70; at Neutrophil collagenase, 8.92; in series [2], 7.14. The pIC50 at Stromelysin-2 is 8.59; in series [3] it was 8.74; in [4], 6.26; in series [5], 6.29; on Collagenase 3, 10.28.
`COc1cccc(CNC(=O)c2nc3scc(-c4cccc(Cl)c4)c3c(=O)[nH]2)c1`: the pIC50 in series [1] is 5.59; at Neutrophil collagenase, below 5.00; on Stromelysin-2, 5.20; against Collagenase 3, 9.92.
Turning to `O=C(NCc1cccc(OCCCS(=O)(=O)N2CCCCC2C(=O)O)c1)c1nc2ccccc2c(=O)[nH]1` (stereo unspecified), the pIC50 on Interstitial collagenase was below 5.00; in series [1], 7.85; on Stromelysin-1, 6.43; at Matrilysin it was below 5.00; at Neutrophil collagenase, 7.85; in [2], below 5.00. Moreover, the pIC50 on Stromelysin-2 was 6.62; in series [3] it was 6.52; in series [4], below 5.00; in [5] it was below 5.00; against Collagenase 3 it was 9.62.
For `O=C(NCc1cccc(OCCCOc2nc[nH]n2)c1)c1nc2scc(-c3cccc(Cl)c3)c2c(=O)[nH]1`, the pIC50 in [1] is 6.29; on Neutrophil collagenase it was below 6.00; at Stromelysin-2, 6.09.
On to `CC(C)[C@H](NS(=O)(=O)c1ccc(-c2cccc(CNC(=O)c3nc4ccccc4c(=O)[nH]3)c2)cc1)C(=O)O`, for which the pIC50 at Interstitial collagenase was 5.47; in series [1] it was 8.08; on Stromelysin-1, 7.52; at Matrilysin, 6.00; on Neutrophil collagenase, 8.05; in [2], 7.44. The pIC50 on Stromelysin-2 was 8.62; in series [3], 7.80; in [4], 6.85; in series [5], below 5.00; against Collagenase 3, 9.77.

For orientation: pIC50 means the negative decadic logarithm of the IC50, by convention in mol/L. Usually solubility stands for how much of the substance goes into solution per volume. A low value points to a poorly soluble substance. The bioavailability is the share of a dose that reaches the circulation, judged against a reference dose that is usually intravenous. A high value points to good availability. As a reminder, the inhibition is the share of the control response that was lost under treatment.
